PubChem BioAssay AID463081 (The Scripps Research Institute Molecular Screening Center, 2010)

Target: Glutathione S-transferase omega-1 (Homo sapiens) (UniProt P78417)
Experiment: IC50 of human GSTO1 inhibition by gel ABPP – biochemical, SE-Rh probe, in-gel fluorescence, powder samples, late-stage follow-up (AID 463081)
Conditions: recombinant GSTO1, SE-Rh probe labeling

Chain of Glutathione S-transferase omega-1 (Homo sapiens) (P78417 whole entry, looked up): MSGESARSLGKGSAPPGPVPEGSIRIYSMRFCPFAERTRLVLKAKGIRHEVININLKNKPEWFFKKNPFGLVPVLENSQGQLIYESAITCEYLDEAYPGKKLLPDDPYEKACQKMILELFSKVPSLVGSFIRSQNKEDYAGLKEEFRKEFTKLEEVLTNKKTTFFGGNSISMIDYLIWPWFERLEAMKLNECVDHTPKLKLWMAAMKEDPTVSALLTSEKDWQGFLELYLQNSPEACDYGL

Question: COc1ccc(C(C(=O)NC2CCCCC2)N(C(=O)CCl)c2ccc(Cl)cc2)cc1 (stereo unspecified) was tested. Which IC50 did it give?
Answer: Its IC50 is 22 nM.
